Experiments:
[1] = test system: human synovial sarcoma cell line SW982; experiment: In vivo combinatorial effect of NYZ-1010 and doxorubicin, human T cell transfer model; settings: NSG mice
Method: The administration was carried out on Day 41 (NYZ-1010) or on Days 40 and 47 (doxorubicin). Tumor growth inhibition (%) and change from baseline (%) were calculated according to the expressions given below.

[2] = test system: human lung adenocarcinoma cell line NCI-H522; experiment: In vivo combinatorial effect of NYZ-1010 and durvalumab, human T cell transfer model; settings: NSG mice
[3] = test system: human lung adenocarcinoma cell line NCI-H522; experiment: In vivo combinatorial effect of NYZ-1010 and pembrolizumab, human T cell transfer model; settings: 53 days after tumor inoculation; NSG mice; NYZ-1010 0.01 mg/kg Days 25, 32, 39; pembrolizumab 10 mg/kg Days 28, 32, 35, 39, 42
Method: Tumor growth inhibition (%) was calculated according to the following equation.

[4] = test system: human esophageal cancer cell line OE-19; experiment: In vivo combinatorial effect of NYZ-1010 and sacituzumab govitecan-hziy, human T cell transfer model; settings: NSG mice
Method: The administration was carried out on Day 7 (NYZ-1010) or on days 6 and 13 (sacituzumab govitecan-hziy). Tumor growth inhibition (%) and change from baseline (%) were calculated according to the expressions given below.

**Q.** What does the source list for `COc1cccc2c1C(=O)c1c(O)c3c(c(O)c1C2=O)C[C@@](O)(C(=O)CO)C[C@@H]3O[C@H]1C[C@H](N)[C@H](O)[C@H](C)O1` [doxorubicin]?
**A.** TGI (tumor growth inhibition) ([1]; 55 days after inoculation, NYZ-1010 0.01 mg/kg Day 41, doxorubicin 2.5 mg/kg Days 40 and 47): 25.6%; Change from baseline (%) ([1]; group average, tumor volume on Day 55 vs Day 40 baseline): 214.1 (n = 5) %

**Q.** Which results are given for durvalumab: anti-PD-L1 antibody?
**A.** TGI (tumor growth inhibition) ([2]; 49 days after inoculation, NYZ-1010 0.02 mg/kg Days 25 and 32, durvalumab 10 mg/kg intraperitoneally Days 28, 32, 35, 39): −0.8%; Change from baseline (%) ([2]; group average, tumor volume on Day 49 vs Day 24 baseline): 204.7 (n = 5) %

**Q.** With pembrolizumab: anti-PD-1 antibody as the compound, how does the “TGI (tumor growth inhibition)” value [3] read?
**A.** 3.1%

**Q.** Which results are given for sacituzumab govitecan-hziy?
**A.** TGI (tumor growth inhibition) ([4]; 21 days after inoculation, NYZ-1010 0.01 mg/kg Day 7, sacituzumab govitecan-hziy 25 mg/kg days 6 and 13): 35.4%; Change from baseline (%) ([4]; group average, tumor volume on Day 21 vs Day 6 baseline): 1027.8 (n = 5) %

Source: patent US20250195645A1, “COMBINATION OF MULTISPECIFIC MOLECULE AND IMMUNE CHECKPOINT INHIBITOR” (DAIICHI SANKYO COMPANY, LIMITED, priority 2022, published 2025)
